Consider 25 molecules from patent US20240400591A1 (Jacobio Pharmaceuticals Co., Ltd., priority 2021, published 2024).

The assay concerns the target T1, His-p53 Y220C (94-294) protein (Homo sapiens, UniProt P04637, Y220C).
T1 construct: His-p53 Y220C (94-294) protein
Briefly: In vitro DNA binding assay (HTRF). Format: biochemical. Conditions: % activation normalized to 2 μM Ref-1a high control. Background: TR-FRET usually uses a lanthanide donor and a delayed reading to cut background.
For orientation: EC50 means the concentration at which the effect is half-maximal. A low value points to greater potency. `CN1CCC(Nc2cccc3c(CC(F)(F)F)c(C#CCNc4cccc5c(C6CCNCC6)c[nH]c45)sc23)CC1` [Example 30, N-(3-(7-((1-methylpiperidin-4-yl)amino)-3-(2,2,2-trifluoroethyl)benzo[b]thiophen-2-yl)prop-2-yn-1-yl)-3-(piperidin-4-yl)-1H-indol-7-amine] had an EC50 of 452 nM. For `COc1cc(C(=O)NO)ccc1NCC#Cc1sc2c(NC3CCN(C)CC3F)cccc2c1CC(F)(F)F` (stereo not shown) [Example 58, 4-((3-(7-(((Z)-3-fluoro-1-methylpiperidin-4-yl)amino)-3-(2,2,2-trifluoroethyl)benzo[b]thiophen-2-yl)prop-2-yn-1-yl)amino)-N-hydroxy-3-methoxybenzamide], the EC50 amounted to 90 nM.

In turn, `CN1CCC(Nc2cccc3c(CC(F)(F)F)c(C#CCNc4cccc5cc[nH]c45)sc23)CC1` [Example 29, N-(3-(7-((1-methylpiperidin-4-yl)amino)-3-(2,2,2-trifluoroethyl)benzo[b]thiophen-2-yl)prop-2-yn-1-yl)-1H-indol-7-amine] displayed a concentration for a half-maximal effect (EC50) of 6400 nM.

For the molecule `COc1cc(C(=O)N2CCOCC2)ccc1NCC#Cc1sc2c(NC3CCN(C)CC3F)cccc2c1CC(F)(F)F` (stereo not shown) [Example 50, (4-((3-(7-(((Z)-3-fluoro-1-methylpiperidin-4-yl)amino)-3-(2,2,2-trifluoroethyl)benzo[b]thiophen-2-yl)prop-2-yn-1-yl)amino)-3-methoxyphenyl)(morpholino)methanone], the EC50 was determined as 86 nM. In the case of `COc1cc(S(N)(=O)=O)ccc1NCC#Cc1sc2c(NC3CCN(C)CC3F)cccc2c1CC(F)(F)F` (stereo not shown) [Example 40, 4-((3-(7-(((Z)-3-fluoro-1-methylpiperidin-4-yl)amino)-3-(2,2,2-trifluoroethyl)benzo[b]thiophen-2-yl)prop-2-yn-1-yl)amino)-3-methoxybenzenesulfonamide], the EC50 is 60 nM. For `COc1cc(S(C)(=O)=O)ccc1NCC#Cc1sc2c(NC3CCN(C)CC3F)cccc2c1CC(F)(F)F` (stereo not shown) [Example 2, (Z)-3-fluoro-N-(2-(3-((2-methoxy-4-(methylsulfonyl)phenyl)amino)prop-1-yn-1-yl)-3-(2,2,2-trifluoroethyl)benzo[b]thiophen-7-yl)-1-methylpiperidin-4-amine] the value was 44 nM; for `COc1cc(S(C)(=O)=O)ccc1NCC#Cc1cc2c(N[C@H]3CC[C@@H](N4CC5(COC5)C4)CC3)cccc2n1CC(F)(F)F` [Example 39, Cis-N-(4-(2-oxa-6-azaspiro[3.3]heptan-6-yl)cyclohexyl)-2-(3-((2-methoxy-4-(methylsulfonyl)phenyl)amino)prop-1-yn-1-yl)-1-(2,2,2-trifluoroethyl)-1H-indol-4-amine], 157 nM; for `COc1cc(P(C)(C)=O)ccc1NCC#Cc1sc2c(NC3CCN(C)CC3)ccnc2c1CC(F)(F)F` [Example 71, (3-methoxy-4-((3-(7-((1-methylpiperidin-4-yl)amino)-3-(2,2,2-trifluoroethyl)thieno[3,2-b]pyridin-2-yl)prop-2-yn-1-yl)amino)phenyl)dimethylphosphine oxide], 1030 nM.

For the molecule `COc1cc(S(C)(=O)=O)ccc1NCC#Cc1sc2c(NC3C4CNCC3CNC4)cccc2c1CC(F)(F)F` (stereo not shown) [Example 78, N-(2-(3-((2-methoxy-4-(methylsulfonyl)phenyl)amino)prop-1-yn-1-yl)-3-(2,2,2-trifluoroethyl)benzo[b]thiophen-7-yl)-3,7-diazabicyclo[3.3.1]nonan-9-amine], the EC50 was 134 nM. For `COc1cc(P(C)(C)=O)ccc1NCC#Cc1sc2c(N[C@@H]3CCN(C4CC(C)(C)OC(C)(C)C4)C[C@@H]3F)cccc2c1CC(F)(F)F` [Example 181, (4-((3-(7-(((3S,4R)-3-fluoro-1-(2,2,6,6-tetramethyltetrahydro-2H-pyran-4-yl)piperidin-4-yl)amino)-3-(2,2,2-trifluoroethyl)benzo[b]thiophen-2-yl)prop-2-yn-1-yl)amino)-3-methoxyphenyl)dimethylphosphine oxide] the value was 96 nM.

The molecule `COc1cc(P(C)(C)=O)ccc1NCC#Cc1sc2c(NC3CCN(C)CC3F)cccc2c1CC#N` (stereo not shown) [Example 133, 2-(2-(3-((4-(dimethylphosphoryl)-2-methoxyphenyl)amino)prop-1-yn-1-yl)-7-(((E)-3-fluoro-1-methylpiperidin-4-yl)amino)benzo[b]thiophen-3-yl)acetonitrile] returned an EC50 of 311 nM. For the molecule `C[C@@H](C#Cc1sc2c(NC3CCN(C)CC3)cccc2c1CC(F)(F)F)Nc1ccc(S(N)(=O)=O)cc1` [Example 45, (S)-4-((4-(7-((1-methylpiperidin-4-yl)amino)-3-(2,2,2-trifluoroethyl)benzo[b]thiophen-2-yl)but-3-yn-2-yl)amino)benzenesulfonamide], the response was half-maximal at 2790 nM (EC50). With `CCP(=O)(CC)c1ccc(NCC#Cc2sc3c(NC4CCN(C5CCOCC5)CC4)cccc3c2CC(F)(F)F)c(OC)c1` [Example 155, diethyl(3-methoxy-4-((3-(7-((1-(tetrahydro-2H-pyran-4-yl)piperidin-4-yl)amino)-3-(2,2,2-trifluoroethyl)benzo[b]thiophen-2-yl)prop-2-yn-1-yl)amino)phenyl)phosphine oxide] the figure was 147 nM; with `CN1CCC(Nc2cccc3c(CC(F)(F)F)c(C#CCNc4ccc(P(C)(C)=O)cc4)sc23)CC1` [Example 9, dimethyl(4-((3-(7-((1-methylpiperidin-4-yl)amino)-3-(2,2,2-trifluoroethyl)benzo[b]thiophen-2-yl)prop-2-yn-1-yl)amino)phenyl)phosphine oxide], 114 nM; with `COc1nc(C(N)=O)ccc1NCC#Cc1sc2c(NC3CCN(C)CC3F)cccc2c1CC(F)(F)F` (stereo not shown) [Example 63, 5-((3-(7-(((Z)-3-fluoro-1-methylpiperidin-4-yl)amino)-3-(2,2,2-trifluoroethyl)benzo[b]thiophen-2-yl)prop-2-yn-1-yl)amino)-6-methoxypicolinamide], 220 nM.

`CN1CC[C@@H](Nc2cccc3c(CC(F)(F)F)c(C#CCNc4ccc(P(C)(C)=O)c5c4OC(F)(F)O5)sc23)[C@@H](F)C1` [Example 164, (2,2-difluoro-7-((3-(7-(((3S,4R)-3-fluoro-1-methylpiperidin-4-yl)amino)-3-(2,2,2-trifluoroethyl)benzo[b]thiophen-2-yl)prop-2-yn-1-yl)amino)benzo[d][1,3]dioxol-4-yl)dimethylphosphine oxide] showed an EC50 of 120 nM.

`COCCN1CC[C@@H](Nc2cccc3c(CC(F)(F)F)c(C#CCNc4ccc(P(C)(C)=O)cc4OC)sc23)[C@@H](F)C1` (racemic) [Example 88, (4-((3-(7-(((Z)-3-fluoro-1-(2-methoxyethyl)piperidin-4-yl)amino)-3-(2,2,2-trifluoroethyl)benzo[b]thiophen-2-yl)prop-2-yn-1-yl)amino)-3-methoxyphenyl)dimethylphosphine oxide] showed an EC50 of 404 nM.

`C[C@H](C#Cc1sc2c(NC3CCN(C)CC3)cccc2c1CC(F)(F)F)Nc1ccc(S(N)(=O)=O)cc1` [Example 44, (R)-4-((4-(7-((1-methylpiperidin-4-yl)amino)-3-(2,2,2-trifluoroethyl)benzo[b]thiophen-2-yl)but-3-yn-2-yl)amino)benzenesulfonamide] gave an EC50 of 2910 nM.

On to `COc1cc(P(C)(C)=O)ccc1NCC#Cc1sc2c(NC3CCN(C)CC3F)cccc2c1-c1cncs1` (stereo not shown) [Example 116, (4-((3-(7-(((Z)-3-fluoro-1-methylpiperidin-4-yl)amino)-3-(thiazol-5-yl)benzo[b]thiophen-2-yl)prop-2-yn-1-yl)amino)-3-methoxyphenyl)dimethylphosphine oxide], for which the EC50 is 5130 nM. For `COCCOc1cc(S(C)(=O)=O)ccc1NCC#Cc1sc2c(NC3CCN(C)CC3)cccc2c1CC(F)(F)F` [Example 14, N-[2-[3-[2-(2-methoxyethoxy)-4-methylsulfonyl-anilino]prop-1-ynyl]-3-(2,2,2-trifluoroethyl)benzothiophen-7-yl]-1-methyl-piperidin-4-amine] the value was 199 nM.

With `COc1cc(S(C)(=O)=O)ccc1NCC#Cc1sc2c(NC3CC4(CCN(C)CC4)C3)cccc2c1CC(F)(F)F` [Example 33, N-(2-(3-((2-methoxy-4-(methylsulfonyl)phenyl)amino)prop-1-yn-1-yl)-3-(2,2,2-trifluoroethyl)benzo[b]thiophen-7-yl)-7-methyl-7-azaspiro[3.5]nonan-2-amine], it took 621 nM to reach a half-maximal effect (EC50).

As for `COc1cc(S(C)(=O)=O)ccc1NCC#Cc1sc2c(NC3CCCN(C)CC3)cccc2c1CC(F)(F)F` (stereo not shown) [Example 55, N-(2-(3-((2-methoxy-4-(methylsulfonyl)phenyl)amino)prop-1-yn-1-yl)-3-(2,2,2-trifluoroethyl)benzo[b]thiophen-7-yl)-1-methylazepan-4-amine], the EC50 was 122 nM. With `COc1cc(S(C)(=O)=O)ccc1NCC#Cc1sc2c(NC3CCN(CC(F)(F)F)CC3)cccc2c1CC(F)(F)F` [Example 37, N-(2-(3-((2-methoxy-4-(methylsulfonyl)phenyl)amino)prop-1-yn-1-yl)-3-(2,2,2-trifluoroethyl)benzo[b]thiophen-7-yl)-1-(2,2,2-trifluoroethyl)piperidin-4-amine] the figure was 3880 nM; with `CN1CC[C@@H](Nc2cccc3c(CC(F)(F)F)c(C#CCNc4ccc(S(C)(=O)=O)cc4P(C)(C)=O)sc23)[C@@H](F)C1` [Example 171, (2-((3-(7-(((3S,4R)-3-fluoro-1-methylpiperidin-4-yl)amino)-3-(2,2,2-trifluoroethyl)benzo[b]thiophen-2-yl)prop-2-yn-1-yl)amino)-5-(methylsulfonyl)phenyl)dimethylphosphine oxide], 178 nM; with `COc1cc(P(C)(C)=O)ccc1OCC#Cc1sc2c(N[C@@H]3CCN(C)C[C@@H]3F)cccc2c1CC(F)(F)F` (racemic) [Example 123, (4-((3-(7-(((Z)-3-fluoro-1-methylpiperidin-4-yl)amino)-3-(2,2,2-trifluoroethyl)benzo[b]thiophen-2-yl)prop-2-yn-1-yl)oxy)-3-methoxyphenyl)dimethylphosphine oxide], 147 nM.
